Laboratory results published in PubChem BioAssay (NCI).
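Following 48 hours of exposure in 96-well plates, responses at five concentrations were used to interpolate endpoints linearly. The concentration for 50% growth inhibition is given as GI50. The concentration for full growth arrest is given as TGI.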

Legend:
Experiment in all cases: NCI anticancer screen, dose series, 48 h
786-0 renal = tested on: 786-0 renal
A498 renal = tested on: A498 renal
A549 NSCLC = tested on: A549 NSCLC
ACHN renal = tested on: ACHN renal
BT-549 breast = tested on: BT-549 breast
CAKI-1 renal = tested on: CAKI-1 renal
CCRF-CEM leukemia = tested on: CCRF-CEM leukemia
COLO 205 colon = tested on: COLO 205 colon
DU-145 prostate = tested on: DU-145 prostate
EKVX NSCLC = tested on: EKVX NSCLC
HCC-2998 colon = tested on: HCC-2998 colon
HCT-116 colon = tested on: HCT-116 colon
HCT-15 colon = tested on: HCT-15 colon
HL-60(TB) leukemia = tested on: HL-60(TB) leukemia
HOP-62 NSCLC = tested on: HOP-62 NSCLC
HOP-92 NSCLC = tested on: HOP-92 NSCLC
HS 578T breast = tested on: HS 578T breast
HT29 colon = tested on: HT29 colon
IGROV1 ovarian = tested on: IGROV1 ovarian
K-562 leukemia = tested on: K-562 leukemia
KM12 colon = tested on: KM12 colon
LOX IMVI melanoma = tested on: LOX IMVI melanoma
M14 melanoma = tested on: M14 melanoma
MALME-3M melanoma = tested on: MALME-3M melanoma
MCF7 breast = tested on: MCF7 breast
MDA-MB-231 breast = tested on: MDA-MB-231 breast
MDA-MB-435 = tested on: MDA-MB-435
MDA-MB-468 breast = tested on: MDA-MB-468 breast
MOLT-4 leukemia = tested on: MOLT-4 leukemia
NCI-H226 lung = tested on: NCI-H226 lung
NCI-H23 lung = tested on: NCI-H23 lung
NCI-H460 lung = tested on: NCI-H460 lung
NCI-H522 lung = tested on: NCI-H522 lung
NCI/ADR-RES ovarian = tested on: NCI/ADR-RES ovarian
OVCAR-3 ovarian = tested on: OVCAR-3 ovarian
OVCAR-4 ovarian = tested on: OVCAR-4 ovarian
OVCAR-5 ovarian = tested on: OVCAR-5 ovarian
OVCAR-8 ovarian = tested on: OVCAR-8 ovarian
PC-3 prostate = tested on: PC-3 prostate
RPMI-8226 leukemia = tested on: RPMI-8226 leukemia
RXF 393 renal = tested on: RXF 393 renal
SF-268 CNS = tested on: SF-268 CNS
SF-295 CNS = tested on: SF-295 CNS
SF-539 CNS = tested on: SF-539 CNS
SK-MEL-2 melanoma = tested on: SK-MEL-2 melanoma
SK-MEL-28 melanoma = tested on: SK-MEL-28 melanoma
SK-MEL-5 melanoma = tested on: SK-MEL-5 melanoma
SK-OV-3 ovarian = tested on: SK-OV-3 ovarian
SN12C renal = tested on: SN12C renal
SNB-19 CNS = tested on: SNB-19 CNS
SNB-75 CNS = tested on: SNB-75 CNS
SR leukemia = tested on: SR leukemia
SW-620 colon = tested on: SW-620 colon
T-47D breast = tested on: T-47D breast
TK-10 renal = tested on: TK-10 renal
U251 CNS = tested on: U251 CNS
UACC-257 melanoma = tested on: UACC-257 melanoma
UACC-62 melanoma = tested on: UACC-62 melanoma
UO-31 renal = tested on: UO-31 renal

Work on `CCOc1ccccc1[C@H]1C(C(=O)c2ccc(Cl)cc2)C2(N[C@@H]1c1ccccc1)C(=O)Nc1ccc(Br)cc12` (stereo partly drawn) yielded a GI50 (786-0 renal) of 5.76 µM, a TGI (786-0 renal) of 17.6 µM and a GI50 (A498 renal) of 4.45 µM. The TGI (A498 renal) was 13.7 µM, the GI50 (A549 NSCLC) was 6.58 µM and the TGI (A549 NSCLC) was over 34.5 µM. It also gave a GI50 (ACHN renal) of 7.25 µM, a TGI (ACHN renal) of over 34.5 µM and a GI50 (BT-549 breast) of 5.3 µM. The TGI (BT-549 breast) was 10.8 µM, the GI50 (CAKI-1 renal) was 2.92 µM and the TGI (CAKI-1 renal) was over 34.5 µM. It also gave a GI50 (CCRF-CEM leukemia) of 22.8 µM, a TGI (CCRF-CEM leukemia) of over 34.5 µM and a GI50 (COLO 205 colon) of 5.35 µM. For the same compound, the TGI (COLO 205 colon) was 10.6 µM, the GI50 (DU-145 prostate) was 8.88 µM and the TGI (DU-145 prostate) was 32.2 µM. The GI50 (EKVX NSCLC) was 7.9 µM, the TGI (EKVX NSCLC) was over 34.5 µM and the GI50 (HCC-2998 colon) was 4.88 µM. The TGI (HCC-2998 colon) was 13 µM, the GI50 (HCT-116 colon) was 4.76 µM and the TGI (HCT-116 colon) was 11 µM. For the same compound, the GI50 (HCT-15 colon) was 7.51 µM, the TGI (HCT-15 colon) was 33.3 µM and the GI50 (HL-60(TB) leukemia) was 4.77 µM. It also gave a TGI (HL-60(TB) leukemia) of 16.3 µM, a GI50 (HOP-62 NSCLC) of 5.62 µM and a TGI (HOP-62 NSCLC) of 13.5 µM. The GI50 (HOP-92 NSCLC) was 5.42 µM, the TGI (HOP-92 NSCLC) was 14.6 µM and the GI50 (HS 578T breast) was 4.77 µM. It also gave a TGI (HS 578T breast) of 15.2 µM, a GI50 (HT29 colon) of 4.46 µM and a TGI (HT29 colon) of 10.1 µM. The GI50 (IGROV1 ovarian) was 4.88 µM, the TGI (IGROV1 ovarian) was 21.2 µM and the GI50 (K-562 leukemia) was 7.41 µM. The TGI (K-562 leukemia) was over 34.5 µM, the GI50 (KM12 colon) was 6 µM and the TGI (KM12 colon) was 20.4 µM. The GI50 (LOX IMVI melanoma) was 4.17 µM, the TGI (LOX IMVI melanoma) was 8.44 µM and the GI50 (M14 melanoma) was 5.55 µM. It also gave a TGI (M14 melanoma) of 14.5 µM, a GI50 (MALME-3M melanoma) of 5.7 µM and a TGI (MALME-3M melanoma) of 12.1 µM. The GI50 (MCF7 breast) was 6.45 µM, the TGI (MCF7 breast) was 29.9 µM and the GI50 (MDA-MB-231 breast) was 4.04 µM. It also gave a TGI (MDA-MB-231 breast) of 8.87 µM, a GI50 (MDA-MB-435) of 5.55 µM and a TGI (MDA-MB-435) of 12.7 µM. For the same compound, the GI50 (MDA-MB-468 breast) was 3.46 µM, the TGI (MDA-MB-468 breast) was 12.6 µM and the GI50 (MOLT-4 leukemia) was 4.46 µM. For the same compound, the TGI (MOLT-4 leukemia) was 19.8 µM, the GI50 (NCI-H226 lung) was 4.32 µM and the TGI (NCI-H226 lung) was 10.6 µM. For the same compound, the GI50 (NCI-H23 lung) was 5.43 µM, the TGI (NCI-H23 lung) was 13.8 µM and the GI50 (NCI-H460 lung) was 5.11 µM. It also gave a TGI (NCI-H460 lung) of 10.8 µM, a GI50 (NCI-H522 lung) of 4.41 µM and a TGI (NCI-H522 lung) of 13.4 µM. It also gave a GI50 (NCI/ADR-RES ovarian) of 5.25 µM, a TGI (NCI/ADR-RES ovarian) of 13 µM and a GI50 (OVCAR-3 ovarian) of 5.07 µM. The TGI (OVCAR-3 ovarian) was 12.8 µM, the GI50 (OVCAR-4 ovarian) was 8.09 µM and the TGI (OVCAR-4 ovarian) was over 34.5 µM. The GI50 (OVCAR-5 ovarian) was 7 µM, the TGI (OVCAR-5 ovarian) was 24.5 µM and the GI50 (OVCAR-8 ovarian) was 6.06 µM. It also gave a TGI (OVCAR-8 ovarian) of 19.3 µM, a GI50 (PC-3 prostate) of 3.6 µM and a TGI (PC-3 prostate) of over 34.5 µM. It also gave a GI50 (RPMI-8226 leukemia) of 6.69 µM, a TGI (RPMI-8226 leukemia) of over 34.5 µM and a GI50 (RXF 393 renal) of 3.8 µM. The TGI (RXF 393 renal) was 9.29 µM, the GI50 (SF-268 CNS) was 6.2 µM and the TGI (SF-268 CNS) was 24.4 µM. For the same compound, the GI50 (SF-295 CNS) was 5.79 µM, the TGI (SF-295 CNS) was 21.6 µM and the GI50 (SF-539 CNS) was 7.93 µM. The TGI (SF-539 CNS) was 20.2 µM, the GI50 (SK-MEL-2 melanoma) was 5.59 µM and the TGI (SK-MEL-2 melanoma) was 12.4 µM. It also gave a GI50 (SK-MEL-28 melanoma) of 6.28 µM, a TGI (SK-MEL-28 melanoma) of 15.7 µM and a GI50 (SK-MEL-5 melanoma) of 5.41 µM. The TGI (SK-MEL-5 melanoma) was 10.8 µM, the GI50 (SK-OV-3 ovarian) was 9.66 µM and the TGI (SK-OV-3 ovarian) was over 34.5 µM. It also gave a GI50 (SN12C renal) of 4.46 µM, a TGI (SN12C renal) of 9.03 µM and a GI50 (SNB-19 CNS) of 9.14 µM. For the same compound, the TGI (SNB-19 CNS) was over 34.5 µM, the GI50 (SNB-75 CNS) was 4.2 µM and the TGI (SNB-75 CNS) was 25 µM. The GI50 (SR leukemia) was 5.17 µM, the TGI (SR leukemia) was 16.3 µM and the GI50 (SW-620 colon) was 6.55 µM. The TGI (SW-620 colon) was 19 µM, the GI50 (T-47D breast) was 4.05 µM and the TGI (T-47D breast) was over 34.5 µM. The GI50 (TK-10 renal) was 8.22 µM, the TGI (TK-10 renal) was 28.5 µM and the GI50 (U251 CNS) was 5.72 µM. The TGI (U251 CNS) was 13.9 µM, the GI50 (UACC-257 melanoma) was 5.86 µM and the TGI (UACC-257 melanoma) was 17.6 µM. For the same compound, the GI50 (UACC-62 melanoma) was 3.45 µM, the TGI (UACC-62 melanoma) was 7.98 µM and the GI50 (UO-31 renal) was 4.99 µM. For the same compound, the TGI (UO-31 renal) was 20.8 µM.
